Columns and labels:
BRD7 = target: T1, BRD7 (Homo sapiens, UniProt Q9NPI1); experiment: BRD7-HiBiT protein abundance luminescence assay in HEK293 cells
T1 sequence (Q9NPI1 1-651): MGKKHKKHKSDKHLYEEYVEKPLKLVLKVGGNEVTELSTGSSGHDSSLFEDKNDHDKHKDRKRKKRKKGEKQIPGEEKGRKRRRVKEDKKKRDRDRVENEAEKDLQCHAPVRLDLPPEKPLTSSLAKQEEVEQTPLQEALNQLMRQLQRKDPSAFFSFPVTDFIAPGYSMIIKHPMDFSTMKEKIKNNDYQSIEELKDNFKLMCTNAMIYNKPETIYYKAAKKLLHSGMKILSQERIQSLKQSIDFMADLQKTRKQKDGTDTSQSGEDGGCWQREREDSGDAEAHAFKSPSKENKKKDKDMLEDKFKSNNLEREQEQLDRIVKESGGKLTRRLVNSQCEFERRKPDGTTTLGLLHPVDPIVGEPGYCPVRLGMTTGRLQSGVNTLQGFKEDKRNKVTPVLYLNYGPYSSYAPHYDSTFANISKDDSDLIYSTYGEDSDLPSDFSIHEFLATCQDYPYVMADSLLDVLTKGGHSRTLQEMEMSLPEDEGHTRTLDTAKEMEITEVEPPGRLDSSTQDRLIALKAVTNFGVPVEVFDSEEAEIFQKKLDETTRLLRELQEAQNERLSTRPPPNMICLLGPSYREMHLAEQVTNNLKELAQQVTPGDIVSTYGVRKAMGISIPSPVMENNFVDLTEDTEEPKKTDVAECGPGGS
Text: HEK293/BRD9-HiBiT pools (PROMEGA # CS3023120) and HEK293/BRD7-HiBiT pools (PROMEGA # CS3023124) were purchased from Promega. We performed clonal selection for HEK293/BRD9-HiBiT cell line using single-cell sorting and screening for HiBiT expression using Nano-Glo HiBiT Lytic Detection System (Promega # N3030). The HEK293/BRD9-HiBiT clone and HEK293/BRD7-HiBiT pool to perform standard HiBiT assays.

CSK = target: T2, CSK (Homo sapiens, UniProt P41240); experiment: Immunoblot of CSK in HEK293T cells; assay type: cell-based; conditions: 6 h
T2 construct: host or cells: HEK293T
Procedure: Whole cell lysates for immunoblotting were prepared by pelleting cells at 4 °C (300 g) for 3 min. Cell pellets were then washed 1x with PBS and resuspended in RIPA lysis buffer (VWR, cat # 97063-270) supplemented with protease (Thermo Scientific, cat # A32955) and phosphatase (Thermo Scientific, cat # A32957) inhibitor tablets. Lysates were clarified at 16,000 × g for 15 min at 4 °C prior to quantification by Lowry assay (Bio-Rad cat # 5000113 and cat # 5000114). Whole-cell lysates were loaded into 4–20% Criterion TGX Precast 18 well gels (Bio-Rad, cat # 5671094) and separated by electrophoreses at 120 V for 1 h. The gels were transferred to a nitrocellulose membrane using the Trans-Blot Turbo (Bio-Rad) for 7 min and then blocked for 1 h at room temperature in Odyssey blocking buffer (LICOR Biosciences, cat # 927-50000). Membranes were probed with the appropriate primary antibodies (diluted 1:1000) overnight at 4 °C in 20% Odyssey blocking buffer in 1x TBST. Membranes were washed three times with 1x TBST (5 min per wash), and then incubated with IRDye goat anti-mouse (LICOR, cat # 926-32210) or goat anti-rabbit (LICOR, cat # 926-32211) secondary antibody diluted 1:10,000 in 20% Odyssey blocking buffer for 1 h at room temperature. After three 5-min washes with 1x TBST, the immunoblots were visualized using the ODYSSEY Infrared Imaging System (LICOR). […]

BRD9 = target: T3, BRD9 (Homo sapiens, UniProt Q9H8M2); experiment: Rescue of DBr-1 mediated BRD9 degradation by co-treatment, BRD9-HiBiT HEK293 cells; assay type: cell-based; parameters: host or cells: HEK293/BRD9-HiBiT knock-in; clone and BRD9-HiBiT/CAS9/FF clone; conditions: (13) 1 µM, OICR8268 10 µM, BI-9564 10 µM
T3 sequence (Q9H8M2 1-597): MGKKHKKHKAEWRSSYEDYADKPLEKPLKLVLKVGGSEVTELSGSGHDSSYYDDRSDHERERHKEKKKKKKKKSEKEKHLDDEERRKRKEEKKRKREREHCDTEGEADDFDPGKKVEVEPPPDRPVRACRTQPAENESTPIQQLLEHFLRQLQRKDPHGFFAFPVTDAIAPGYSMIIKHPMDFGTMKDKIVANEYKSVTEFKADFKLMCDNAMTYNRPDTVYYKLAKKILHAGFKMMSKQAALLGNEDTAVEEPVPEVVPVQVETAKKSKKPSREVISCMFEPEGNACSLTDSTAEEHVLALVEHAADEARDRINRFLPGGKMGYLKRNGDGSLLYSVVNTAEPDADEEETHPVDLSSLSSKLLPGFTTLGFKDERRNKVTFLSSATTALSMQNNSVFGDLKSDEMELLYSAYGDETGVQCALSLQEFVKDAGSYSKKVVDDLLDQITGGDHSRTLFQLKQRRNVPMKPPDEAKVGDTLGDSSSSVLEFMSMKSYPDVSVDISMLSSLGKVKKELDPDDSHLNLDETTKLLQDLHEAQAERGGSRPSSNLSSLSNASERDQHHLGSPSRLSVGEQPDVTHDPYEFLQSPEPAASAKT
Procedure: Supplementary figure 4. Competition experiments with DBr-1 and DBr-1-N […]
a) BRD9-HiBiT signal detection of samples pretreated with either DMSO, 10µM OICR-8268, 1µM […]
Data represents average ± standard deviation from n=3 replicates. DC50 values and […]
maximal observed degradation are shown below. […]
b) Cell titer Glow assay of BRD9 HiBiT cells. Cells pretreated with either DMSO, 10µM OICR-8268, […]
Data represents average ± standard deviation from n=3 replicates.
Source data are provided as a Source Data file

T2 sequence (P41240 whole entry): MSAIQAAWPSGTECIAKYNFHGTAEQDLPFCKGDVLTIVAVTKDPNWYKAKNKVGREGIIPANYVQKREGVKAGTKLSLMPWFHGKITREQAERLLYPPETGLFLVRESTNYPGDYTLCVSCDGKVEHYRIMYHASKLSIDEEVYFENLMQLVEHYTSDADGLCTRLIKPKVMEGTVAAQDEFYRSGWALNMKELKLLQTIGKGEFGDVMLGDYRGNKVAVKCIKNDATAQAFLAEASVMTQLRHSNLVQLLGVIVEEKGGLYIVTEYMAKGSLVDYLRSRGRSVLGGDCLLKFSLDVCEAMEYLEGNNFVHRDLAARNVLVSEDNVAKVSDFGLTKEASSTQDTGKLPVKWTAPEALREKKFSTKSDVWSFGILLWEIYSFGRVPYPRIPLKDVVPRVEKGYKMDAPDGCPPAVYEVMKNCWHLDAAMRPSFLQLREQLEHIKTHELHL

## COc1cc(-c2cn(C)c(=O)c3cnccc23)c(OC)cc1CN1CCC(OCCCCCC(=O)N2CCN(c3ccc4c(NCCN)nc(C5(c6ccc(Cl)cc6)CCCCC5)nc4c3)CC2)CC1 [DBr-1]
BRD7; 2 h
  maximal observed degradation (BRD7), % in brackets: 65%
BRD7; read-out: rel. DC50 (BRD7), 2 h
  DC50: 360 nM

## Cc1nc(Nc2ncc(C(=O)Nc3c(C)cccc3Cl)s2)cc(N2CCC(OC3CCN(CCCCCCCC(=O)N4CCN(c5ccc6c(NCCN)nc(C7(c8ccc(Cl)cc8)CCCCC7)nc6c5)CC4)CC3)CC2)n1 [DDa-1]
CSK
  CSK protein levels: significant reduction in protein levels

## CC(=O)N1CCN(c2ccc3c(NCCN)nc(C4(c5ccc(Cl)cc5)CCCCC4)nc3c2)CC1 [compound 13]
BRD9
  effect of co-treatment on DBr-1 mediated BRD9 degradation: did not affect the degradation efficacy of DBr-1

Source: publication PMC10766610, “DCAF1-based PROTACs with activity against clinically validated targets overcoming intrinsic- and acquired-degrader resistance” (Nature Communications, 2024)
